“And” between values parts separate entries of the source, which are not always exact repeats. Equal values may be shown once.
Key:
SDF-1/CXCR4 [1] = target: T1, SDF-1/CXCR4 (Homo sapiens (Human), UniProt P61073); assay: cAMP assay (SDF-1/CXCR4-mediated cAMP reduction); format: cell-based; conditions: for concentration effective in counteracting/blocking SDF-1 function: cAMP reduction by SDF-1; for effect of SDF-1 on cAMP reduction: pre-treatment with compound, SDF-1 EC80 150 ng/ml
Protocol: Because the major signaling pathway of CXCR4/SDF-1 involves the pertussis toxin-sensitive G protein Gi, compounds described herein were tested as to whether they inhibited SDF-1/CXCR4-mediated cAMP reduction. The absorption increase at 665 nm was determined by varying the concentration of SDF-1 (0-200 ng/ml) to determine EC80 to be 150 ng/ml.

[2] = Pharmacokinetic study in rats; format: in vivo; conditions: 10 mg/kg
Description: (§1) Oral bioavailability and sustained plasma exposure was consistently observed in multiple species for certain compounds.

[3] = Initial pharmacokinetic study in mice; format: in vivo; conditions: intraperitoneally (IP) and orally
Description: as §1

[4] = 28-day oral toxicology study in rats; format: in vivo; conditions: 250 and 600 mg/kg orally once per day for 28 days
Protocol: (§2) In initial studies, three groups of rats (5 males and 5 females per group) were dosed with 0, 250 and 600 mg/kg of MSX-122 orally once per day for 28 days. […] A 5-day repeat dose study was carried out in two non-naïve cynomolgus monkeys (1 male and 1 female) and two naïve cynomolgus monkeys (1 male and 1 female) dosed with 1,000 and 2,000 mg/kg, respectively, orally once per day for 5 days.

CHO cells = assay: In vitro chromosome aberration screening test; format: cell-based; conditions: any dose level up to 2 mM, 4 hour with S9, 20 hour without S9
Protocol: (§3) Sufficiently scorable cells in the presence of S9 were available for 4 hour treatment and in the absence of S9 for a 20 hour treatment. Finally, MSX-122 was tested for its potential to interfere with the rapid delayed rectifier current (IKr) in human ventricles through the cardiac potassium channel, hERG since inhibition of IKr has been reported to be the most common cause of cardiac action potential prolongation by non-cardiac drugs.

hERG channel (IKr) = hERG channel (IKr) (Homo sapiens (Human), UniProt Q12809); assay: hERG channel current (IKr) inhibition; format: biochemical; conditions: human; 1 μM; read-out: inhibition of hERG channel currents
Chain of hERG channel (IKr) (Q12809 whole entry): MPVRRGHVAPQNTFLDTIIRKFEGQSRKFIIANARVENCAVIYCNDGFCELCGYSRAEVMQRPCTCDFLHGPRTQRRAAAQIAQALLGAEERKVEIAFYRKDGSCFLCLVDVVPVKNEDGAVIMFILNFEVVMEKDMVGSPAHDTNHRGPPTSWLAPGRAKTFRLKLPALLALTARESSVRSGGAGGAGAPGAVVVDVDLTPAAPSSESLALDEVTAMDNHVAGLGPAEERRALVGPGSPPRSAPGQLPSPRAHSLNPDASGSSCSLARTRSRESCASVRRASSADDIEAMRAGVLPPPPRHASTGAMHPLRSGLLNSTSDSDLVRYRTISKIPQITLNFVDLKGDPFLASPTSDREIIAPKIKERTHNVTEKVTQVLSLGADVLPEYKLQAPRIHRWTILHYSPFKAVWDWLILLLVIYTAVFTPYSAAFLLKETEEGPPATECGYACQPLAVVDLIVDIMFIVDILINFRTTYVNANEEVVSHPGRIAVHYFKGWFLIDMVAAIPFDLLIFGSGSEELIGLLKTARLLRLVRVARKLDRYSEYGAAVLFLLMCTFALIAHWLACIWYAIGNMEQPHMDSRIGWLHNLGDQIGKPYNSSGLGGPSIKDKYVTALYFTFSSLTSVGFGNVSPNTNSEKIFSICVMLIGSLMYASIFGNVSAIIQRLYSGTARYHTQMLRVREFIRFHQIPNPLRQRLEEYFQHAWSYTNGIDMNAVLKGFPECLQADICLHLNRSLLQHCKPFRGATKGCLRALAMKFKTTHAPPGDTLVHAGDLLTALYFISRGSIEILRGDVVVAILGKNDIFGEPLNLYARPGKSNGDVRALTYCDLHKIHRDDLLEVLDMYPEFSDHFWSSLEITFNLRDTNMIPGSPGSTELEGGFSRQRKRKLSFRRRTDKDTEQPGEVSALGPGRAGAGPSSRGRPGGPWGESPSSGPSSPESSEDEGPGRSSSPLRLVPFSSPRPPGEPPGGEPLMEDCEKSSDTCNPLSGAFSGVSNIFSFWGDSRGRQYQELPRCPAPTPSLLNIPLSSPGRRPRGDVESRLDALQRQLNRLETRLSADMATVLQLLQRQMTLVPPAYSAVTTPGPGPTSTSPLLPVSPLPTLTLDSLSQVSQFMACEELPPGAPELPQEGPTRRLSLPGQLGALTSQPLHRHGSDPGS
Protocol: as §3

hERG channel = hERG channel (Homo sapiens (Human), UniProt Q12809); assay: hERG channel current (IKr) inhibition; format: biochemical
Chain of hERG channel (Q12809 whole entry): as above
Protocol: as §3

[5] = Pharmacokinetic/pharmacodynamic study in cynomolgus monkeys; format: in vivo
Description: as §1

In vitro Ames test = format: cell-based
[6] = target: SDF-1 binding domain of CXCR4 (Homo sapiens (Human), UniProt P61073); assay: Competitive binding assay against biotin-labeled TN14003; conditions: competition with biotin-labeled TN14003; read-out: Effective concentrations (EC50)
Chain of SDF-1 binding domain of CXCR4 (P61073 whole entry, the tested form may be a part): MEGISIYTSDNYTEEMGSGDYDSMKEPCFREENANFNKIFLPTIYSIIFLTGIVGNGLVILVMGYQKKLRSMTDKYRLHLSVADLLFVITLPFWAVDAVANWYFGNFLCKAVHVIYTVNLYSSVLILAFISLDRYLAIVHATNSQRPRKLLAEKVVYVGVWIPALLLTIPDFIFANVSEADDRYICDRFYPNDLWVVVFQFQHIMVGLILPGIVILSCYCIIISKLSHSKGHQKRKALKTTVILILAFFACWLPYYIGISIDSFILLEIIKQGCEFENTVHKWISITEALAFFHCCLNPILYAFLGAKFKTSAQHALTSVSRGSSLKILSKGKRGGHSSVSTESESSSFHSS
Description: Aa competitive binding assay using biotin-labeled TN14003 and streptavidin-conjugated rhodamine was developed to determine the binding efficiency of new chemical entities to the SDF-1 binding domain of CXCR4.

[7] = 5-day repeat dose study in cynomolgus monkeys; format: in vivo
Protocol: as §2

hot flashes = assay: Treatment of hot flashes in a patient; format: in vivo, human; conditions: person, 50 mg/day oral, after third treatment
Protocol: An approximately 70 kg person with a history of aggressive high grade serous carcinomy in their right fallopian tube, a complete hysterectomy and bilateral oophorectomy after previous treatments with VEGF-Trap and docetaxel, Carboplatin and taxol and doxil was treated with MSX-122, 50 mg/day oral.

SDF-1/CXCR4 [8] = target: T1, SDF-1/CXCR4; assay: IC50 vs SDF-1 (table of specific compounds); format: binding
[9] = cynomolgus monkeys, oral 5 and 10 mg/kg
[10] = cynomolgus monkeys, 1,000 and 2,000 mg/kg orally once per day for 5 days

T1 sequence (P61073 whole entry): as the sequence (P61073 whole entry, the tested form may be a part) above

## c1cc(CN2CCCNCCNCCCNCC2)ccc1CN1CCCNCCNCCCNCC1 [AMD-3100, reference compound]
SDF-1/CXCR4 [1]
  concentration effective in counteracting/blocking SDF-1 function: ~1000 nM
  effect of SDF-1 on cAMP reduction: blocked significantly in a dose-dependent manner

## c1cnc(NCc2ccc(CNc3ncccn3)cc2)nc1 [MSX-122, N-(4-((pyrimidin-2-ylamino)methyl)benzyl)-pyrimidin-2-amine]
[2]; for 10 hours
  plasma levels: above 100 ng/ml and > 342 nM
[2]; rat, plasma, oral, read-out: initial Tmax (converted)
  Tmax: ~30 min
[3]
  blood levels: sustained blood levels
[4]
  signs or symptoms of toxicity during the study: No signs or symptoms of toxicity
  toxicity upon termination from blood serum chemistry or gross necropsy: no toxicity was observed
[4]; after day 1
  plasma concentrations maintained throughout the study: micromolar
[4]; both sexes, rat, in vivo, po
  Cmax: 2000 ng/mL to 4000 ng/mL and 6.8 µM to 13.6 µM
CHO cells
  structural or numerical chromosome aberrations: no statistically significant increase in structural or numerical chromosome aberrations
hERG channel (IKr)
  inhibition at 1 µM: 0.2%
hERG channel
  inhibitory effect on hERG channel currents: do not exert a significant inhibitory effect
[5]; [9]
  half lives: support once per day dosing
  plasma concentrations: micromolar
[5]; female cynomolgus monkeys, oral 1, 5 and 10 mg/kg
  pharmacokinetics / dose proportionality of plasma levels: sustained pharmacokinetics with plasma levels that were relatively dose proportional
In vitro Ames test
  mutagenicity: no evidence of mutagenicity
[6]
  EC50: 0.6 nM
[7]; both sexes, cynomolgus monkey, in vivo, po, cynomolgus monkeys, 1,000 and 2,000 mg/kg orally once per day for 5 days
  Cmax: 5.1 µM to 12 µM and 1500 ng/mL to 3500 ng/mL
[7]; cynomolgus monkeys dosed at 2000 mg/kg
  gross necropsy: no abnormalities or signs of toxicity
[7]; [10]
  blood serum chemistry: no abnormalities
  plasma concentrations maintained throughout the study: micromolar
  signs or symptoms of toxicity: No drug-related signs or symptoms of toxicity
[7]; cynomolgus monkeys, 1,000 and 2,000 mg/kg, may have been caused by excipients
  clinical observations (stool): loose and watery stool in a subset of the animals
Hot flashes
  hot flashes: resolved greatly
SDF-1/CXCR4 [1]
  concentration effective in counteracting/blocking SDF-1 function: 10 nM
  effect of SDF-1 on cAMP reduction: blocked significantly in a dose-dependent manner

## Cc1ccc(NCc2ccc(CNc3ccc(C)cc3)cc2)cc1 [MSX-139]
SDF-1/CXCR4 [8]
  IC50: 10 nM

## c1cncc(NCc2ccc(CNc3cccnc3)cc2)c1 [MSX-163]
SDF-1/CXCR4 [8]
  IC50: 10 nM

## c1ccc(NCCc2ccc(CCNc3ccccc3)cc2)cc1 [MSX-170]
SDF-1/CXCR4 [8]
  IC50: < 100 nM

## Cc1c(C)c(CNc2ccccc2)c(C)c(C)c1CNc1ccccc1 [MSX-172]
SDF-1/CXCR4 [8]
  IC50: 10 nM

## c1ccc(NCc2ccc(CNc3ccccc3)c3ccccc23)cc1 [MSX-175]
SDF-1/CXCR4 [8]
  IC50: > 100 nM

## Clc1nc(Cl)nc(NCc2ccc(CNc3nc(Cl)nc(Cl)n3)cc2)n1 [MSX-190]
SDF-1/CXCR4 [8]
  IC50: 10 nM

## COc1ccccc1NCc1ccc(CNc2ccccc2OC)cc1 [MSX-206]
SDF-1/CXCR4 [8]
  IC50: 10 nM

## COCc1ccc(CNc2ncccn2)cc1 [MSX-208]
SDF-1/CXCR4 [8]
  IC50: 100 nM

## c1ccc(OCc2ccc(CNc3ncccn3)cc2)cc1 [MSX-209]
SDF-1/CXCR4 [8]
  IC50: 10 nM

## c1ccc(SCc2ccc(CSc3ccccc3)cc2)cc1 [MSX-211]
SDF-1/CXCR4 [8]
  IC50: 1000 nM

## c1ccc(OCc2ccc(CNc3ncccn3)cc2)nc1 [MSX-212]
SDF-1/CXCR4 [8]
  IC50: 100 nM

## O=C(O)c1cccc(NCc2ccc(CNc3cccc(C(=O)O)c3)cc2)c1 [MSX-214]
SDF-1/CXCR4 [8]
  IC50: 100 nM

## Clc1ccc(NCc2ccc(CNc3ncccn3)cc2)nc1 [MSX-219]
SDF-1/CXCR4 [8]
  IC50: 10 nM

## N=C(N)NCc1ccc(CNC(=N)N)cc1 [WZ5S]
other
  melting point: 278 to 281 °C (dec.)

## c1ccc(NCCNCc2ccc(CNCCNc3ccccc3)cc2)cc1 [WZ8]
other
  melting point: 42 to 43 °C

## c1ccc(NCc2ccc(CNc3ccccc3)cc2)cc1 [WZ13]
other
  melting point: 126 to 127 °C

## O=C(Nc1ccccc1)c1cc(C(=O)Nc2ccccc2)cc(C(=O)Nc2ccccc2)c1 [WZ20]
other
  melting point: 318 to 320 °C

Source: patent US9205085B2, “Tricyclic amino containing compounds for treatment or prevention of symptoms associated with endocrine dysfunction” (Emory University, priority 2011, dated 2015)
